In US20230391753A1, “THIOBENZIMIDAZOLE DERIVATIVE OR PHARMACEUTICALLY ACCEPTABLE SALT THEREOF AND USE THEREOF” (KOREA UNIVERSITY RESEARCH AND BUSINESS FOUNDATION, priority 2020, published 2023):

Tests used:
[1] = test system: HER2-positive breast cancer cell line JIMT-1; assay: MTS cell viability assay, JIMT-1; format: cell-based, human; conditions: 72 hours
Experimental: A human triple-negative breast cancer (TNBC) cell line MDA-MB-231 (Cell seeding numbers: 1(M231)×10^4 cells/wells (confluency ≥25%) and an HER2-positive breast cancer (HER2+BC) cell line JIMT-1 (Cell seeding numbers: 1.2 (JIMT)×10^4 cells/wells (confluency ≥25%) were used in the experiment.
The cell lines were cultured in a Dulbecco's modified Eagle's medium (DMEM) containing 10% fetal bovine serum (FBS), streptomycin-penicillin (100 U/mL) and Fungizone (0.625 μg/mL) in an environment of 5% CO2 and 37° C., respectively.
In the human breast cancer cell lines MDA-MB-231 and JIMT-1, thiobenzimidazole derivatives of Chemical Formulas 1-1, 1-2, 1-3, 1-5, 1-6, 1-7, 1-8, 1-1-11, 1-12, 1-13, 1-14, 1-15, 1-16, 1-17, 1-19, 1-20, 1-21, and 1-22 were treated at various concentrations of 0, 0.5, 1, and 5 μM for 72 hours, respectively, and then cell viability was measured by an MTS assay. In the MTS assay, the cells were attached to a 96 well plate for 24 hours, treated with the thiobenzimidazole derivatives for 72 hours, and then developed with MTS (3-(4,5-dimethylthiazol-2-yl)-5-(3-carboxymethoxyphenyl)-2-(4-sulfophenyl)-2H-tetrazolium) for 4 hours, and then absorbance was measured at 490 nm using a Spectramax Plus384 microplate analyzer. […]

[2] = test system: HER2-positive breast cancer cell line BT474; assay: MTS cell viability assay, BT474; format: cell-based; conditions: 72 hours
Experimental: In the human breast cancer cell lines MDA-MB-231 and JIMT-1, thiobenzimidazole derivatives of Chemical Formulas 1-1, 1-2, 1-3, 1-5, 1-6, 1-7, 1-8, 1-1-11, 1-12, 1-13, 1-14, 1-15, 1-16, 1-17, 1-19, 1-20, 1-21, and 1-22 were treated at various concentrations of 0, 0.5, 1, and 5 μM for 72 hours, respectively, and then cell viability was measured by an MTS assay. In the MTS assay, the cells were attached to a 96 well plate for 24 hours, treated with the thiobenzimidazole derivatives for 72 hours, and then developed with MTS (3-(4,5-dimethylthiazol-2-yl)-5-(3-carboxymethoxyphenyl)-2-(4-sulfophenyl)-2H-tetrazolium) for 4 hours, and then absorbance was measured at 490 nm using a Spectramax Plus384 microplate analyzer. […] The HER2-positive breast cancer cell line BT474 sensitive to Trastuzumab and the HER2-positive breast cancer cell line JIMT-1 resistant to Trastuzumab were treated with the thiobenzimidazole derivative of Chemical Formula 1-3 prepared above and its hydrochloride (Compound 1-23) at the same concentrations of […], 0.1, 0.5, 1, 5, and 10 μM for 72 hours, and then cell viability and IC50 were measured by an MTS assay.

[3] = test system: HER2-positive breast cancer cell line SKBR3; assay: Cell viability assay, SKBR3; format: cell-based; conditions: SKBR3 (sensitive to Trastuzumab); 72 hours
SKBR3 cell line = assay: DNA content analysis by flow cytometry (PI), SKBR3; format: cell-based; conditions: 0.1, 0.25 and 0.5 μM for 72 hours
Experimental: (§1) The degree of apoptosis of cancer cells induced by the thiobenzimidazole derivative of Chemical Formula 1-3 was measured through DNA content analysis using a flow cytometry. The SKBR3, BT474 and JIMT-1 cell lines were treated with a control (DMSO) and the derivative of Chemical Formula 1-3 at concentrations of 0.1, 0.25 and 0.5 μM for 72 hours, and then the cells were harvested, immobilized with 95% ethanol containing 0.5% Tween-20 for 24 hours, and then stained with propidium iodide (PI, 50 μg/mL) and RNase (50 μg/mL) for 30 minutes. Thereafter, the degree of apoptosis of cancer cells was analyzed using a flow cytometer.
(§2) The result of such apoptosis was shown on the cell cycle as a Sub G1 site, and the ratio of Sub G1 was expressed numerically and shown in FIG. 8.

BT474 cell line = assay: DNA content analysis by flow cytometry (PI), BT474; format: cell-based; conditions: 0.1, 0.25 and 0.5 μM for 72 hours
Experimental: as §1, §2

JIMT-1 cell line = assay: DNA content analysis by flow cytometry (PI), JIMT-1; format: cell-based, human; conditions: 0.1, 0.25 and 0.5 μM for 72 hours
Experimental: as §1, §2

cancer cells = assay: Annexin V/PI staining; format: cell-based; conditions: 0.1, 0.25, and 0.5 μM for 72 hours
Experimental: In addition, in order to confirm the apoptosis-inducing effect of the derivative of Chemical Formula 1-3, the control (DMSO) and the derivative of Chemical Formula 1-3 were treated at concentrations of 0.1, 0.25, and 0.5 μM for 72 hours, and then the degree of apoptosis was confirmed by Annexin V/PI staining.

## COC(=O)Nc1nc2cc(Sc3ccc(F)cc3)ccc2[nH]1 [Chemical Formula 1-1, methyl 5-(4-fluorophenyl-thio)-1H-benzo[d]imidazol-2-ylcarbamate]
other
  melting point: 232 to 233 °C

## COC(=O)Nc1nc2cc(Sc3ccc(N4CCN(C)CC4)cc3)ccc2[nH]1 [Chemical Formula 1-3, methyl (5-((4-(4-methylpiperazin-1-yl)phenyl)thio)-1H-benzo[d]imidazol-2-yl) carbamate]
[1]; Homo sapiens, JIMT-1, MTS
  IC50: 448 nM
[1]; JIMT-1 (resistant to Trastuzumab)
  inhibitory effect on cell proliferation: inhibitory effect on cell proliferation was exhibited
[2]; BT474 (sensitive to Trastuzumab)
  inhibitory effect on cell proliferation: inhibitory effect on cell proliferation was exhibited
[2]; Homo sapiens, BT-474, BT474, MTS
  IC50: 2180 nM
[3]
  inhibitory effect on cell proliferation: inhibitory effect on cell proliferation was exhibited
SKBR3 cell line
  G2/M phase cell cycle arrest: arrested the G2/M phase cell cycle
  apoptosis (Sub-G1 population): significantly induced apoptosis (Sub-G1 population)
BT474 cell line
  G2/M phase cell cycle arrest: arrested the G2/M phase cell cycle
  apoptosis (Sub-G1 population): significantly induced apoptosis (Sub-G1 population)
JIMT-1 cell line
  G2/M phase cell cycle arrest: arrested the G2/M phase cell cycle
  apoptosis (Sub-G1 population): significantly induced apoptosis (Sub-G1 population)
Cancer cells
  early and late apoptosis (Annexin V/PI): early and late apoptosis were effectively induced in a concentration-dependent manner
